The source of these data is US5817816A (Meiji Seika Kaisha, Ltd., priority 1997, dated 1998).

The experiment has as its target T1, progesterone receptor (Sus scrofa, UniProt D0EWS6).
T1 construct: from tissue; host or cells: hog uterus, 100,000×g supernatant (cytosol)
T1 sequence (D0EWS6 1-934): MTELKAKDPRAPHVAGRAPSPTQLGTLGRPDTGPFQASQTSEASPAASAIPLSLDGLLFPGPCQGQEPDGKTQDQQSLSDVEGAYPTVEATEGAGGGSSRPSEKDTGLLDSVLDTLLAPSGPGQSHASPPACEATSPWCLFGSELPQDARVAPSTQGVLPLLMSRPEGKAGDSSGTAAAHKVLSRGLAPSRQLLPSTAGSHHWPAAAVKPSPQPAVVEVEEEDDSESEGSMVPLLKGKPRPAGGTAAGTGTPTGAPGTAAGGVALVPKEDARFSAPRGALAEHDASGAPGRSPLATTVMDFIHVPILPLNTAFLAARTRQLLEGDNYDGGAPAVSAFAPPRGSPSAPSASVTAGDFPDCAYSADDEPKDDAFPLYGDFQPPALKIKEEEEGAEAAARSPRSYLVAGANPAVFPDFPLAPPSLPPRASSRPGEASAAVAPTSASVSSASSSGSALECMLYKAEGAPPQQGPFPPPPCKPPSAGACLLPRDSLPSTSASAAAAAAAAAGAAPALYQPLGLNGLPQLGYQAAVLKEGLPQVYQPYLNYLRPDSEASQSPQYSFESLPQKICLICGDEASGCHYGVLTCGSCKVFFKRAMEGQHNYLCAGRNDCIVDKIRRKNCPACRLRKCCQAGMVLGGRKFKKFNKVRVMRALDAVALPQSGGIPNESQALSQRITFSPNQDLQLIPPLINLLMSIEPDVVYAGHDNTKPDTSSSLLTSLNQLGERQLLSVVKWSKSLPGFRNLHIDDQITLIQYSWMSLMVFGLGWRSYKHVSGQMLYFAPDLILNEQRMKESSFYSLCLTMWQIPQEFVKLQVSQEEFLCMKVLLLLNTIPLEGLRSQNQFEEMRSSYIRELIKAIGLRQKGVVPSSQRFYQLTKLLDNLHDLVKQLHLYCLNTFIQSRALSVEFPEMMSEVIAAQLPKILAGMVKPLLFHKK
Kind of experiment: Progesterone receptor binding inhibition ([3H]-progesterone, hog uterus cytosol). Also on record: species or system hogs. The following applies: [3H]-progesterone ligand, 60 min at 4° C. Here is the method: That is, uteri taken from hogs were disrupted in 5 mM phosphate buffer by means of Polytron homogenizer, and this solution was centrifuged (100,000×g, 30 min) to separate the supernatant, thereby preparing a cytosol containing progesterone receptor. A given concentration of a test drug solution (10 μl) was added to a solution composed of 50 μl of the cytosol obtained Just above (2-3 mg protein/ml) and 40 μl of a solution of [^3 H]-progesterone as a ligand (3.84 TBq/mM, 18.5 kBq/ml), and they were incubated in a test tube for 60 min at 4° C. to effect a reaction. Then, 100 μl of a 0.5% activated carbon solution was added to the reaction solution, and the mixture was allowed to stand for 10 min and then centrifuged (2,000×g, 10 min). The radioactivity of the supernatant was measured with a liquid scintillation counter.
Separately, the radioactivity was measured in the same manner as described above, except that no test drug was added. Further, the radioactivity was measured in the same manner as described above, except that 10 μl of Medroxyprogesterone Acetate (MPA) (10 μg/ml) was added instead of the test drug. The radioactivity with no test drug added was defined as the amount of total binding of [^3 H]-progesterone to the cytosol, and the radioactivity with MPA added was defined as the amount of non-specific binding. […] [formula]
In general, IC50 refers to the concentration that inhibits the measured activity by half. Lower therefore signals higher potency. Take `CC(=O)O[C@H]1CC(Cl)=C2C=C3OC(=O)C(C)=C3C[C@]2(C)[C@H]1C` [Example 7a, 3β-Acetoxy-1-chloroeremophila-1(10),7(11),8(9)-trien-12,8-olide]: the IC50 was < 100 nM. `CC(=O)O[C@H]1CC(Sc2ccccc2)=C2C=C3OC(=O)C(C)=C3C[C@]2(C)[C@H]1C` [Example 21a, 3β-Acetoxy-1-phenylthioeremophila-1(10),7(11),8(9)-trien-12,8-olide]: the concentration for half-maximal inhibition (IC50) was 700 nM. To `CC(=O)O[C@H]1CC=C2C=C3OC(=O)C(C)=C3C[C@]2(C)[C@H]1C` [Example 7b, 3β-Acetoxyeremophila-1(10),7(11),8(9)-trien-12,8-olide] belongs < 100 nM; to `CC(=O)O[C@H]1C=CC2=C[C@H]3OC(=O)C(C)=C3C[C@]2(C)[C@H]1C` [Example 15, 3β-Acetoxyeremophila-1(2),7(11),9(10)-trien-12,8β-olide], < 100 nM. `CCOC1=C2C=C3OC(=O)C(C)=C3C[C@]2(C)[C@@H](C)[C@@H](OC(C)=O)C1` [Example 21b, 3β-Acetoxy-1-ethoxyeremophila-1(10),7(11),8(9)-trien-12,8-olide] returned an IC50 of 279 nM. This lies in the sub-micromolar range. For `COC(=O)C(C)=C1C[C@@]2(C)C(=CC1=O)C=C[C@H](OC(C)=O)[C@@H]2C` [Example 14a, 3β-Acetoxy-8-oxoeremophila-1(2),7(11),9(10)-trien-12-oic acid methyl ester] the value was 600 nM; for `CC1=C2C[C@@]3(C)C(=CC=C[C@@H]3C)C=C2OC1=O` [Example 16, Eremophila-1(10),2(3),7(11),8(9)-tetraen-12,8-olide], 400 nM.
